The values that follow come from ChEMBL document CHEMBL1949499, “Nicotinic acids: liver-targeted SCD inhibitors with preclinical anti-diabetic efficacy” (Bioorg Med Chem Lett, 2011).

pIC50: −log10 of the molar value. Calls of active or inactive are those of the source. The rule behind the calls is not given here.

The target in data set [1] is T1, Acyl-CoA desaturase 1 (Rattus norvegicus, UniProt P07308).
T1 sequence (P07308 whole entry): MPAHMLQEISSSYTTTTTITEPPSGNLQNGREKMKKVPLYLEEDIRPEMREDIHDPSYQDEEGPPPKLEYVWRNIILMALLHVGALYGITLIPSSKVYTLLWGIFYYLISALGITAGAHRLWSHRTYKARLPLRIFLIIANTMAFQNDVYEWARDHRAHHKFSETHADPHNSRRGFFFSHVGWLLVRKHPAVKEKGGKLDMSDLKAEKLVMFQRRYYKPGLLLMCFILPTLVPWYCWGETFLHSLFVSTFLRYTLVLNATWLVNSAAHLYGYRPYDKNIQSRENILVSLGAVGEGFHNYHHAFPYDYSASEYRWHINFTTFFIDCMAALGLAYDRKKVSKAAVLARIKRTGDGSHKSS
Kind of data set: Inhibition of rat SCD1.

The target of the next data set is T2, Stearoyl-CoA desaturase (Homo sapiens, UniProt O00767).
T2 sequence (O00767 whole entry): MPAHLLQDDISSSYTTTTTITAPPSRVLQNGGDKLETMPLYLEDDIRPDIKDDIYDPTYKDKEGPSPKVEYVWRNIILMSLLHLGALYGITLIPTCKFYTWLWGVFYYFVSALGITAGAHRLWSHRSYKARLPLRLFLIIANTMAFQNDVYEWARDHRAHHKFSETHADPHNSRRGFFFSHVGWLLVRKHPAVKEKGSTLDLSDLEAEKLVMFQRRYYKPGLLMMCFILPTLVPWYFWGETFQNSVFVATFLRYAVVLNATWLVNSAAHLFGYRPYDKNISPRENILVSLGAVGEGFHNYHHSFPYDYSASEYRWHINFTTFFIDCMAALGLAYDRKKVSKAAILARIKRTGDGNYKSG
Description: Inhibition of human SCD1 expressed in human HepG2 cells assessed as conversion of [14C]stearic acid to [14C]oleic acid. The data set is classed as cell-based.

Data set [2] concerns the target T1, Acyl-CoA desaturase 1. Kind of data set: Inhibition of SCD1 in Sprague-Dawley rat hepatocytes assessed as conversion of [14C]oleic acid formation by HPLC analysis. The data set is classed as cell-based, Hepatocyte.
Data set [3] is described as follows: Drug uptake in high fat diet fed C57/BL6 mouse eDIO model whole blood at 100 mg/kg, po after 3 hrs. The data set is classed as ADME, organism-based. More on the design: dose 100 mg/kg, route oral. Particulars: read-out: Drug uptake.
Data set [4] in a line: Drug uptake in high sucrose/fat free diet fed C57/BL6 mouse liver at 100 mg/kg, po after 3 hrs. Also noted: dose 100 mg/kg, route oral. To be noted: read-out: Drug uptake. The data set is classed as ADME, organism-based.
Data set [5] has as its system Mus musculus. Kind of data set: Acute antidiabetic activity in high fat diet fed C57/BL6 mouse eDIO model assessed as increase in glucose clearance at 100 mg/kg, po administered 1 hr prior to glucose challenge by oGTT assay. The data set is classed as functional.
The next data set relates to Nucleic Acid. Description: Ratio of drug uptake in high fat diet fed C57/BL6 mouse eDIO model whole blood to high sucrose/fat free diet fed C57/BL6 mouse plasma. The data set is classed as ADME. To be noted: in vivo.
Data set [6] has as its system Mus musculus. Kind of data set: Inhibition of SCD activity in high sucrose/fat free diet fed C57/BL6 mouse liver assessed as reduction in conversion of [14C]stearic acid to [14C]oleic acid at 100 mg/kg, po. The data set is classed as functional.
Data set [7] is described as follows: Plasma concentration in high sucrose/fat free diet fed C57/BL6 mouse at 100 mg/kg, po after 3 hrs. The data set is classed as ADME, organism-based. Also noted: dose 100 mg/kg, route oral.
The next data set relates to HepG2. Kind of data set: Selectivity ratio of IC50 for human SCD1 expressed in human HepG2 cells to IC50 for rat SCD1 in Sprague-Dawley rat hepatocytes. The data set is classed as cell-based.
Data set [8] is described as follows: Ratio of drug uptake in left median liver lobe to harderian gland in C57/BL6 mouse at 10 mg/kg, po after 6 hrs. The data set is classed as ADME, organism-based. More on the design: dose 10 mg/kg, route oral. To be noted: in vivo.

`O=C(O)c1ccc(-c2ccc(N3CCC(Oc4cc(F)ccc4Br)CC3)nn2)nc1`: the pIC50 – broadly, the IC50 on a negative log10 scale, so that one unit is a factor of ten – on Acyl-CoA desaturase 1 [1] was 8.10; at Stearoyl-CoA desaturase, 6.89; at Acyl-CoA desaturase 1 [2], 6.80.
The molecule `O=C(O)c1cncc(-c2ccc(N3CCC(Oc4c(F)cc(F)cc4Br)CC3)nn2)c1` had a pIC50 against Acyl-CoA desaturase 1 [1] of less than 4.70. The concentration at 3 h in [3] is 730 nM; in [4], 30200 nM; in data set [7], 750 nM. The outcome in the data set with Mus musculus [5] was inactive. Further, the Ratio in the data set with Nucleic Acid is on record as less than 2. Further, the inhibition result in the data set on Mus musculus [6] is “inactive”.
As for `O=C(O)c1cccc(-c2ccc(N3CCC(Oc4ccccc4C(F)(F)F)CC3)nn2)c1`, the pIC50 against Acyl-CoA desaturase 1 [1] was 6.97; at Stearoyl-CoA desaturase, 5.95.
`O=C(O)c1ccc(-c2ccc(N3CCC(Oc4ccccc4C(F)(F)F)CC3)nn2)cc1`: the pIC50 is 6.98 at Acyl-CoA desaturase 1 [1] and 6.26 at Stearoyl-CoA desaturase.
As for `O=C(O)c1cncc(-c2ccc(N3CCC(Oc4cc(F)c(F)cc4Br)CC3)nn2)c1`, the pIC50 on Acyl-CoA desaturase 1 [1] is 7.82; at Stearoyl-CoA desaturase, 5.08; on Acyl-CoA desaturase 1 [2], 6.25.
As to `O=C(O)c1cncc(-c2ccc(N3CCC(Oc4ccccc4Br)CC3)nn2)c1`, the pIC50 is 7.33 against Acyl-CoA desaturase 1 [1], 4.74 on Stearoyl-CoA desaturase and 5.78 on Acyl-CoA desaturase 1 [2]. Moreover, the Ratio IC50 with HepG2 was determined as 11.
`FC(F)(F)c1ccccc1OC1CCN(c2ccc(-c3cncc(-c4nnn[nH]4)c3)nn2)CC1`: the pIC50 against Acyl-CoA desaturase 1 [1] is 4.96.
On the same count and under the same terms, the same measure for `O=C(O)c1ccc(N2CCC(Oc3ccccc3C(F)(F)F)CC2)nn1`: less than 5.00; for `O=C(O)Cc1ccc(N2CCC(Oc3ccccc3C(F)(F)F)CC2)nn1`: 5.57.
For `O=C(O)c1cncc(-c2cnc(N3CCC(Oc4cc(F)ccc4Br)CC3)cn2)c1`, the pIC50 against Acyl-CoA desaturase 1 [1] is 7.16; on Stearoyl-CoA desaturase, 5.17; at Acyl-CoA desaturase 1 [2], 5.87. In data set [8], the Ratio stood at 12.
In the case of `O=C(O)c1cncc(-c2ccc(N3CCC(Oc4cc(F)ccc4Br)CC3)cn2)c1`, the pIC50 on Acyl-CoA desaturase 1 [1] was 5.91.
For the molecule `O=C(O)c1cncc(-c2ccc(N3CCC(Oc4ccccc4Cl)CC3)nn2)c1`, the pIC50 against Acyl-CoA desaturase 1 [1] was 6.78; on Stearoyl-CoA desaturase, less than 5.00; on Acyl-CoA desaturase 1 [2] it was 5.72.
Regarding `O=C(O)c1cncc(-c2ccc(N3CCC(Oc4ccccc4I)CC3)nn2)c1`, the values for the negative-log IC50 (pIC50) on Acyl-CoA desaturase 1 [1], at Stearoyl-CoA desaturase and at Acyl-CoA desaturase 1 [2] were 7.57, 5.29 and 6.00, respectively. Also, the Ratio IC50 in the data set on HepG2 was determined as 5.
For the molecule `O=C(O)c1cncc(-c2ccc(N3CCC(Oc4ccccc4C(F)(F)F)CC3)nn2)c1`, the pIC50 at Acyl-CoA desaturase 1 [1] was 6.89; at Stearoyl-CoA desaturase, less than 4.70; on Acyl-CoA desaturase 1 [2], 5.89.
As for `O=C(O)c1cncc(-c2ccc(N3CCC(Oc4cc(F)ccc4Br)CC3)nn2)n1`, on Acyl-CoA desaturase 1 [1], the pIC50 is 6.11.
Same read-out and setting: the same measure for `O=C(O)c1cncc(-c2ccc(N3CCC(Oc4ccccc4C(F)(F)F)CC3)cc2)c1`: 5.07.
For the molecule `O=C(O)c1cncc(-c2cnc(N3CCC(Oc4cc(F)ccc4Br)CC3)nn2)c1`, the pIC50 was 7.70 on Acyl-CoA desaturase 1 [1], 5.35 on Stearoyl-CoA desaturase and 6.57 on Acyl-CoA desaturase 1 [2]. For the same molecule, in data set [8], the Ratio amounted to 1.5.
For `O=C(O)c1cncc(-c2cnc(N3CCC(Oc4cc(F)ccc4Br)CC3)nc2)c1` the same measures were 7.11, 5.03, 5.52 and 8.
For `O=C(O)c1cncc(-c2ccc(N3CCC(Oc4cc(F)ccc4Br)CC3)nc2)c1` the same measures were 7.62, 5.62, 5.72 and 3.
For the molecule `O=C(O)Cc1cncc(-c2ccc(N3CCC(Oc4cc(F)ccc4Br)CC3)nn2)c1`, the pIC50 against Acyl-CoA desaturase 1 [1] is 7.70; at Stearoyl-CoA desaturase, 6.11; on Acyl-CoA desaturase 1 [2], 7.12. In addition, the Ratio in data set [8] stood at 4. The Ratio IC50 in the data set on HepG2 came to 10.
